Laboratory results as given in patent US12544361B2, “Composition comprising at least one oxazoline for inhibiting the growth of Malassezia yeasts involved in cradle cap, in particular” (Laboratoires Expanscience, priority 2019, dated 2026).
In brackets after ≈: the same amount, converted by molar mass.

Key:
Assay type in all cases: cell-based
[1] = test system: Malassezia furfur (ATCC 14521); assay: MIC of arabinogalactan and malic acid diester in liquid medium, 96-well plates (GLYcoDiag technology); details: 48 hours at 32.5° C., about 1.30-10^4 cfu/mL per well, strain ATCC 14521
Procedure: The minimum inhibitory concentration (MIC) of arabinogalactan and malic acid diester is carried out using a procedure adapted to liquid media in 96-well plates. The MIC study is conducted using GLYcoDiag technology, using the microbial strain Malassezia furfur (American Type Culture Collection (ATCC) reference 14521) as the organism. The cultures are reconstituted according to the instructions of the collection center supplying the reference strain.
Preparation of samples and test microorganisms: the products are diluted in culture medium at the concentrations defined in the table below.
Analytical controls are prepared and used identically to the sample: • a control corresponding to the microbiological medium alone; and • a control consisting of Phenoxyethanol® prepared at 5% (v/v) directly in the microbiological medium associated with each microbial strain.
In order to determine the MIC of the product, it is tested in serial dilutions of 6 dilutions directly in the culture medium intended to promote the growth of the M. furfur strain (96-well microplates). Then, each dilution point is contaminated with the test strain in an amount of about 1.30-10^4 cfu/mL per well. Finally, the tests are incubated for 48 hours at 32.5° C.±2.5° C., taking care to respect the respiratory type of the strain which is facultative aero-anaerobic. […]

[2] = test system: Malassezia furfur (CIP 1634.86); assay: MIC in solid medium by agar dilution method; details: CIP1634, strain CIP 1634.86
Procedure: Protocol: the minimum inhibitory concentration (MIC) of a strain of Malassezia furfur (CIP 1634.86) against cycloceramide OX100 is determined in solid medium by agar dilution method according to COURVALIN P., GOLDSTEIN F., PHILIPPON A. and SIROT J.-Fiche technique 5—L'antibiogramme, édition MPC, 1985, p. 199.

[3] = test system: Malassezia furfur (ATCC 14521); assay: MIC of cycloceramide OX100 in liquid medium, 96-well plates (GLYcoDiag technology); details: 48 hours at 32.5° C., about 5.20-10^4 cfu/mL per well, strain ATCC 14521
Procedure: The determination of the minimum inhibitory concentration of cycloceramide OX100 is carried out by a procedure adapted to liquid media in 96-well plates. The MIC study is conducted using GLYcoDiag technology, using the microbial strain Malassezia furfur (American Type Culture Collection (ATCC) reference 14521) as the organism. The cultures are reconstituted according to the instructions of the collection center supplying the reference strain.
Preparation of samples and test microorganisms: OX100 cycloceramide is diluted in culture medium to the following concentrations: final concentrations in culture medium (expressed as percentages by volume): 0.25%; 0.125%; 0.0625%; 0.0312%; 0.01562%; 0.0078%.
Analytical controls are prepared and used identically to the sample: • a control corresponding to the microbiological medium alone; • a control consisting of Phenoxyethanol® prepared at 5% (v/v) directly in the microbiological medium associated with each microbial strain.
In order to determine the MIC of cycloceramide OX100, it is tested in serial dilutions of 6 dilutions directly in the culture medium intended to support the growth of the M. furfur strain (96-well microplates). Then, each dilution point is contaminated with the test strain in an amount of about 5.20-10^4 cfu/mL per well. Finally, the tests are incubated for 48 hours at 32.5° C. […]

| Molecule | MIC [1] | MIC [2] | MIC [3] |
| --- | --- | --- | --- |
| arabinogalactan | 2.5 % (v/v) |  |  |
| CCCCCCCCCCCC1=NC(C)(C)CO1 [OX100, 2-undecyl-4,4-dimethyl-1,3-oxazoline] |  | 64 µg/mL (≈ 253 µM) | 0.031 % (v/v) |
| di-C12-C13-alkyl malate [malic acid diester] | 1.25 % (v/v) |  |  |
